Reference: ChEMBL document CHEMBL5375967 (J Med Chem, 2023)
Converted amounts (≈) assume the structure as drawn. The source made the active and inactive calls. The calls are words filed in the database; no cut-off is given here.

Assays:
[1] = Drug concentration in blood of arachidonic acid-induced skin inflammation 129S2/SvPasCrl mouse model at 0.03 mg/kg, po measured after 4 hrs; assay type: ADME, organism-based; conditions: read-out: Ct
[2] = biological target: T1, Voltage-gated inwardly rectifying potassium channel KCNH2 (Homo sapiens, UniProt Q12809)
[3] = Drug concentration in blood of arachidonic acid-induced skin inflammation 129S2/SvPasCrl mouse model at 0.3 mg/kg, po measured after 4 hrs; assay type: ADME, organism-based; conditions: read-out: Ct
in vivo [4] = conditions: Sprague-Dawley, rat, po, 3 mg/kg
physchem = conditions: octanol/water, pH 7.4
[5] = Inhibition of neutrophil influx in arachidonic acid-stimulated skin inflammation 129S2/SvPasCrl mouse model assessed as effect on MPO level in skin at 3 mg/kg, po pretreated with compound for 4 hrs followed by arachidonic acid stimulation and measured after 1 hr; assay type: functional; conditions: time 5 hrs
in vivo [6] = conditions: Sprague-Dawley, rat, iv, 1 mg/kg
[7] = Inhibition of neutrophil influx in arachidonic acid-stimulated skin inflammation 129S2/SvPasCrl mouse model assessed as effect on MPO level in skin at 0.03 mg/kg, po pretreated with compound for 4 hrs followed by arachidonic acid stimulation and measured after 1 hr; assay type: functional; conditions: time 5 hrs
[8] = Half life in dog at 1 mg/kg, iv measured upto 24 hrs by LC-MS/MS analysis; assay type: ADME, organism-based, Canis lupus familiaris; conditions: in vivo
in vivo [9] = conditions: Sprague-Dawley, rat, iv, 1 mg/kg; remark: listed apart in the source
in vivo [10] = conditions: Sprague-Dawley, rat, iv, 1 mg/kg; remark: listed apart in the source
[11] = Inhibition of arachidonic acid-stimulated LTB4 release in skin inflammation 129S2/SvPasCrl mouse model at 3 mg/kg, po pretreated with compound for 4 hrs followed by arachidonic acid stimulation and measured after 1 hr; assay type: functional; conditions: time 5 hrs
[12] = Half life in C57BL/6 mouse at 1 mg/kg, iv measured upto 24 hrs by LC-MS/MS analysis; assay type: ADME, organism-based; conditions: in vivo
[13] = Half life in Wistar rat at 1 mg/kg, iv measured upto 24 hrs by LC-MS/MS analysis; assay type: ADME, organism-based; conditions: in vivo
[14] = MRT in C57BL/6 mouse at 1 mg/kg, iv measured upto 24 hrs by LC-MS/MS analysis; assay type: ADME, organism-based; conditions: in vivo
[15] = AUC (0 to infinity) in Wistar rat at 30 mg/kg, po measured upto 24 hrs by LC-MS/MS analysis; assay type: ADME, organism-based; parameters: dose 30 mg/kg, time < 24 hrs, route po; conditions: in vivo
Mus musculus [16] = assay: Antiarthritic activity in KRN passive serum-induced arthritis C57BL/6 mouse model assessed as reduction in cellularity at 0.1 to 10 mg/kg, po bid measured on day 7 at 2 hrs after first dose and 14 hrs after second dose; assay type: functional, organism-based; conditions: dose 0.1-10 mg/kg, time 7.0 day
[17] = Volume of distribution at steady state in Wistar rat at 1 mg/kg, iv measured upto 24 hrs by LC-MS/MS analysis; assay type: ADME, organism-based; conditions: in vivo, read-out: Vdss
[18] = Clearance in C57BL/6 mouse at 1 mg/kg, iv measured upto 24 hrs by LC-MS/MS analysis; assay type: ADME, organism-based; conditions: in vivo
in vivo [19] = conditions: Sprague-Dawley, rat, iv, 1 mg/kg; remark: listed apart in the source
[20] = Metabolic stability in human hepatocyte assessed as intrinsic clearance; assay type: ADME, cell-based; conditions: hepatocytes
Mus musculus [21] = assay: Antiarthritic activity in KRN passive serum-induced arthritis C57BL/6 mouse model assessed as reduction in neutrophil numbers at 0.1 to 10 mg/kg, po bid measured on day 7 at 2 hrs after first dose and 14 hrs after second dose; assay type: functional, organism-based; conditions: dose 0.1-10 mg/kg, time 7.0 day
[22] = Drug concentration in blood of arachidonic acid-induced skin inflammation 129S2/SvPasCrl mouse model at 3 mg/kg, po measured after 4 hrs; assay type: ADME, organism-based; conditions: read-out: Ct
in vitro [23] = conditions: dog, MDCK
[24] = Inhibition of arachidonic acid-stimulated LTB4 release in skin inflammation 129S2/SvPasCrl mouse model at 0.3 mg/kg, po pretreated with compound for 4 hrs followed by arachidonic acid stimulation and measured after 1 hr; assay type: functional
[25] = Volume of distribution at steady state in dog at 1 mg/kg, iv measured upto 24 hrs by LC-MS/MS analysis; assay type: ADME, organism-based, Canis lupus familiaris; conditions: in vivo, read-out: Vdss
[26] = biological target: T1, Voltage-gated inwardly rectifying potassium channel KCNH2; remark: listed apart in the source
[27] = test system: Leukotriene A4 hydrolase (Homo sapiens); assay: Inhibition of LTB4 in calcium ionophore A23187-stimulated human PBMC cells at 1 uM pretreated with compound for 15 mins followed by calcium ionophore A23187 induction and measured after 2 hrs by LC-MS/MS analysis; conditions: time 135.0 min
[28] = Solubility of compound in FeSSIF at pH 6.8; assay type: physicochemical
[29] = Oral bioavailability in C57BL/6 mouse at 3 mg/kg measured upto 24 hrs by LC-MS/MS analysis; assay type: ADME, organism-based; conditions: in vivo
in vitro [30] = conditions: mouse, liver microsomes
Mus musculus [31] = assay: Antiarthritic activity in KRN passive serum-induced arthritis C57BL/6 mouse model assessed as reduction in joint damage at 0.1 to 10 mg/kg, po bid measured on day 7 at 2 hrs after first dose and 14 hrs after second dose; assay type: functional, organism-based; conditions: dose 0.1-10 mg/kg, time 7.0 day
in vivo [32] = conditions: C57BL/6, mouse, in vivo, po, 10 mg/kg
[33] = Inhibition of calcium ionophore A23187-stimulated LTB4 release in C57BL/6 mouse model at 10 mg/kg, po bid measured after 24 hrs; assay type: functional
[34] = biological target: T1, Voltage-gated inwardly rectifying potassium channel KCNH2; remark: listed apart in the source
Mus musculus [35] = assay: Antiarthritic activity in KRN passive serum-induced arthritis C57BL/6 mouse model assessed as reduction in paw swelling at 0.1 to 10 mg/kg, po bid measured on day 7 at 2 hrs after first dose and 14 hrs after second dose; assay type: functional, organism-based; conditions: dose 0.1-10 mg/kg, time 7.0 day
[36] = Solubility of compound in SGF at pH […]; assay type: physicochemical

T1 sequence (Q12809 whole entry): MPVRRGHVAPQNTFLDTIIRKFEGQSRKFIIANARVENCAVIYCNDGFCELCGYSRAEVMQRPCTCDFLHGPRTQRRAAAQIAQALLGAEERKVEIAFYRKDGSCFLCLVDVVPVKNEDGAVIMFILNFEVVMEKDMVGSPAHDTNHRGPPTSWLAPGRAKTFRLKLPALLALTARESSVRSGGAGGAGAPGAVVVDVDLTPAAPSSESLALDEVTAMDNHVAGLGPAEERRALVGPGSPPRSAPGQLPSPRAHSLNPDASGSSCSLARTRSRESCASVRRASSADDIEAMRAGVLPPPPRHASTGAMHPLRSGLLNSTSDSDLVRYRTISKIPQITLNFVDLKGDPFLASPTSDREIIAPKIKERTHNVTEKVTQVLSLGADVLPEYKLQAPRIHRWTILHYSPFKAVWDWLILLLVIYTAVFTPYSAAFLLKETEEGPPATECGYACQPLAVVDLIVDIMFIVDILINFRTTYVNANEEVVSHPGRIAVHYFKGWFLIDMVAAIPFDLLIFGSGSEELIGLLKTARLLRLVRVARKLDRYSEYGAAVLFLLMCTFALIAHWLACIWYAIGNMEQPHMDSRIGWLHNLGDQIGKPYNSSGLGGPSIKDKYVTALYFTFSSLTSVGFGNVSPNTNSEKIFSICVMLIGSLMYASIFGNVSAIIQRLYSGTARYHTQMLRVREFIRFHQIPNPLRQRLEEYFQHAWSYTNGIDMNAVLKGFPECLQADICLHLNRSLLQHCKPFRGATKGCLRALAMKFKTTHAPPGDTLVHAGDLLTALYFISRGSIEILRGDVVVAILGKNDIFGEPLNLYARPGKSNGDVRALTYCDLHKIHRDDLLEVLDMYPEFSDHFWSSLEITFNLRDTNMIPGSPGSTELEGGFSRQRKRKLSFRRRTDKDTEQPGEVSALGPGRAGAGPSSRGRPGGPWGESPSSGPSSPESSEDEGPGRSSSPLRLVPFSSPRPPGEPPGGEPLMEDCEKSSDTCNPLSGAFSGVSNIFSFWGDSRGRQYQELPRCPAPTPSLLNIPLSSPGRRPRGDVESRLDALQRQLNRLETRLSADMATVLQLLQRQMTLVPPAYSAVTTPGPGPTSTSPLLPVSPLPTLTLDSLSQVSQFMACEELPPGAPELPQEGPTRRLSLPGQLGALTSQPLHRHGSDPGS

## N[C@H](CO)Cn1ccc(-c2ccc(Oc3ncc(-c4cc[nH]n4)cc3F)cc2)n1
[1]
  concentration at 4 h: 79 nM
[2]
  IC50: > 30 µM
[3]
  concentration at 4 h: 108 nM
In vivo [4]
  AUC(0-inf): 3.87 µM·h
physchem
  logD: 2
[5]
  inhibition in vivo at 3 mg/kg: 96%
In vivo [6]
  clearance: 20 mL/min/kg
[7]
  inhibition in vivo at 0.03 mg/kg: 52%
[8]
  half-life: 40 h
In vivo [9]
  concentration at 24 h: 32 nM
In vivo [10]
  Cmax: 298 nM
[11]
  inhibition in vivo at 3 mg/kg: 97%
[12]
  half-life: 3.4 h
[13]
  half-life: 13 h
[14]
  MRT: 3.3 h
[15]
  AUC(0-inf): 59.2 µM·h
Mus musculus [16]
  Activity: Active
[17]
  Vd: 6.9 L/kg
[18]
  clearance: 7.5 mL/min/kg
In vivo [19]
  bioavailability: 57%
[20]
  CLH: < 4 µL/min/mg
Mus musculus [21]
  Activity: Active
[22]
  concentration at 4 h: 367 nM
In vitro [23]
  Papp A→B: 12 ×10⁻⁶ cm/s
[24]
  inhibition in vivo at 0.3 mg/kg: 93%
[25]
  Vd: 7 L/kg
[26]
  IC50: 27 µM
[27]
  inhibition: 100%
[28]
  solubility: > 2000 µg/mL
[29]
  bioavailability: 32%
In vitro [30]
  microsomal CLint: 90 µL/min/mg
Mus musculus [31]
  Activity: Active
In vivo [32]
  concentration at 24 h: 218 nM
[33]
  inhibition in vivo at 10 mg/kg: 93%
[34]
  IC50: > 30 µM
Mus musculus [35]
  Activity: Active
[36]
  solubility: 27 µg/mL (≈ 68.5 µM)
